Experimental data as given in patent US7544711B2, “Use of nitroderivatives in urinary incontinence” (Nicox S.A., priority 1996, dated 2009).

What was measured:
[1] = molecular target: T1, nitroxy-sinthetase (Rattus norvegicus, UniProt Q06518); test: LPS-induced nitroxysynthetase activity in rat neutrofils after i.p. dosing; type: in vivo; settings: 10 mg/kg i.p.; LPS 5 mg/kg i.v.; rat neutrofils four hours later; compared to the group treated with the vehicle alone
T1 construct: Blood was collected for neutrofil isolation; from tissue; host or cells: neutrophils isolated from blood of LPS-treated Wistar rats
Method: The nitroxy-sinthetase inhibiting activity induced by lipopolisaccharide (LPS) was determined in rat neutrofils after administration of any of the test compounds and compared with that obtained after treatment with the suspending vehicle alone (0.5% carboxymethyl cellulose, 5 ml/kg) and a product used as comparison. Briefly, Wistar rats fasted for 24 hours before treatment received one of the test compounds (10 mg/kg) intraperitoneally or the vehicle LPS (5 mg/kg) intravenously (caudal vein).
Four hours later the animals were sacrified. Blood was collected for neutrofil isolation.
The enzymatic activity was determined according to the od described by Assreuy J. et al. Feedback inhibition of nitric oxide sinthase activity by nitric oxide, British Journal of Pharmacology, […], 1993.

[2] = tested on: pig urethral smooth muscle; test: Relaxing effect in pig urethral smooth muscle; type: cell-based; settings: 10^−5 M; for Relaxation % 1: first treatment; for Relaxation % 1 / Relaxation % 2: 100% = highest relaxation in medium without Ca++; for Relaxation % 2: second consecutive treatment; for relaxing activity and tachyphylaxis (in words): two consecutive treatments
Method: Samples of urethra were removed from female pigs about 6 months old.
The urethra was opened longitudinally and samples of smooth muscle about 1×2×6 mm in size were removed from an area about 4 mm below ureteral orifices. The samples of smooth muscle were placed in baths for isolated organs, incubated at 37° C. and subjected to a 10 mN tension and connected to a force transducer for measuring mechanical activity. After a period of balancing of about 60 minutes, the prepared samples were exposed to Krebs solution without Ca++ to determine the highest relaxation level. Normal tone was then restored by adding Krebs solution. The relaxation effects of the test derivatives were then measured. The test wasa repeated two consecutive times for each prepared sample in order to evaluate any tachyphylaxis effects.

[3] = tested on: normal urinary bladder of conscious rats; test: Cystometrogram, normal urinary bladder of conscious rats; type: in vivo, rat; settings: 5 mg/kg oral, 4 hours after dosing, IC=interval between contractions
Method: Cystometrograms of conscious rats were determined according to the method described by Howe B. B et al. (1995) (see Example 9).
Male Wistar rats weighing about 500 g were used. The rats were anaesthetised with Nembutal. After opening their abdomen and exposing their urinary bladder, a catheter filled with physiological solution was implanted in the urinary bladder and caused to emerge from the back of the animals. The abdominal muscle and skin were then sutured. 48 hours after surgery the animals were placed in metabolic cages and the catheters were connected to a perfusor which perfused 0.18 ml/min of a physiological solution into the urinary bladder, and to a pressure transducer in order to measure intravesical pressure. After stabilisation for 60 minutes, the animals were orally treated with the test products and urination frequency was than measured during 4 hours after dosing.

[4] = tested on: normal urinary bladder of conscious dogs; test: Cystometrogram, normal urinary bladder of conscious dogs; type: in vivo, dog; settings: 4 hours following dosing, IC=interval between contractions
Method: The cystometrogram of conscious dogs was determined in accordance with the method described by Howe B. B. et al., ZENECA ZD 6169: a NOVEL KATP Channel opener with in vivo selectivity for urinary bladder, Journal of Pharmacology and Experimental Therapeutics, 274, 884-890, 1995.
Female Beagle dogs with urinary bladder catheterised through the urethra by operating in sterile conditions, were used. Catheters were connected to a perfusor which perfused into the urinary bladder a physiological solution and to a pressure transducer in order to measure intravesical pressure. After 15 minute stabilisation, a 30 ml bolus of physiological solution was perfused into the urinary bladder in order to measure increased intravesical pressure and a series of smaller boluses were then perfused until spontaneous contractions were observed. After a period of contraction stabilisation, contracting activity was monitored for 60 minutes. The animals were then treated orally with the test products and urination frequency was then measured during 4 hours following dosing in […].

[5] = tested on: gastroenteric tract of rats; test: In vivo gastrointestinal safety study; design: species or system rat
Source text: Forty Sprague Dawley rats weighing about 300 g were randomly divided into 4 groups and orally treated twice a day for 4 days according to the following experimental scheme:
Eighteen hours after the last treatment the rats were sacrified to determine any gastrointestinal damage.

[6] = tested on: normal urinary bladders of anaesthetised rats; test: Urinary bladder voiding reflex in anaesthetised rats; type: in vivo, rat; settings: 18 hours after last treatment, controls = 100
Method: 40 Sprague Dawley rats weighing about 300 g were randomly divided into 4 groups and orally treated twice a day for 4 days according to the following experimental scheme: 18 hours after the last treatment, the effects on the urinary bladder voiding reflex were evaluated using the method described by Maggi C. A. et al., Prostanoids modulate reflex micturition by acting through capsaicin-sensitive afferents, European Journal of Pharmacology, 105-112, 1988. The animals were anaesthetised with urethane, the urinary bladder was prepared for intraluminal pressure measurement. After a stabilisation period with an empty urinary bladder, this was progressively filled with a physiological solution by slow infusion (0.046 ml/min). A contraction of the urinary bladder was observed upon reflex triggering. The volume of physiological solution and intraluminal pressure required to evoke the reflex (volume and pressure thresholds) were measured. […] All tested products increased this threshold and can, therefore, be considered useful in case of detrusor instability.

[7] = tested on: isolated rat detrusor; test: Contraction inhibiting activity in isolated rat detrusor (40 mM KCl); type: cell-based
Method: Male Wistar rats weighing 200 to 300 g were used. The method used is described by Zhou Q. et al. (1995) (see Example 13). After sacrificing the rats by cervical displacement the urinary bladder was isolated and horizontal strips of detrusor muscle about 2 mm wide and about 5 mm long were obtained from the median region. The strips were placed in baths for isolated organs containing Krebs liquid and subjected to a 1 g tension. Tension variations during the test were measured isometrically by using a pressure transducer connected to a polygraph. The inhibitory effect of a pre-treatment with the test derivatives on contraction induced by 40 mM KCl was determined versus drugs having an opening potassium channel activity (cromakalin, nicorandil) nitroderivatives (nitroglycerin, nicorandil) and anti-inflammatories (indomethacin, naproxen, nimesulide).

[8] = tested on: normal urinary bladder strips; test: Electrically induced contraction of urinary bladder strips, normal rats; type: cell-based, rat; settings: 10^−6 M; normal tissue; 1/7 Hz electrical stimulation
Source text: (§1) The vesical hypertrophy model secondary to urethral obstruction in rats described by Malmgren A. et al.: Cystometrical evaluation of bladder instability in rats with intravesical outflow obstruction, The Journal of Urology, 1987, 137, 1291-1294, was used in order to evaluate the effect of the drugs on hyperactive vesical muscle.
(§2) Male Sprague Dawley rats weighing about 250 g were used. In order to obtain partial urethral obstruction, the rats were anaesthetised with Nembutal and the urinary bladder and urethra were exposed by abdominal incision. A ligature was made around the urethra in the presence of an intraluminal cannula with 1 mm diameter. After suturing the abdominal wall the animals were stabulated for 6 weeks in order for vesical hypertrophy to start.
(§3) The in vitro experiments were conducted with the parallel use of strips obtained from normal rats and rats with vesical hypertrophy.
(§4) The in vitro urinary bladder strips were prepared as described above and the inhibition induced by the drugs on contraction induced by 1/7 Hz electrical stimulation lasting 1 msec., an above maximal voltage, produced by two platinum electrodes, was measured.

[9] = tested on: hypertrophic urinary bladder strips; test: Electrically induced contraction of urinary bladder strips, rats with vesical hypertrophy; type: cell-based, rat; settings: 10^−6 M; hypertrophic tissue; 1/7 Hz electrical stimulation
Source text: as §1, §2, §3, §4

[10] = tested on: rat femoral artery strips; test: Relaxing activity on vessel smooth muscle (phenylephrine-contracted femoral artery strips); type: cell-based; settings: contractions induced by 3×10^−5 M phenylephrine
Source text: Male Wistar rats weighing 200 to 300 g were used. The method used is described by Zhou Q. et al. The inhibitory mechanism of nicorandil in isolated rat urinary bladder and femoral artery, European Journal of Pharmacology, 153-159, 1995. After sacrifing the rats by cervical displacement, the femoral arteries were isolated for the preparation of helicoidal strips about 1×15 mm in size, from which the endothelium was removed. The prepared strips were placed in baths for isolated organs containing Krebs liquid and subjected to a weight of 0.5 g. Tension variations during the test were isometrically measured by means of a pressure transducer connected to a polygraph. The inhibitory effect of a treatment with the test derivatives on contractions induced by 3×10^−5 M phenylephrine versus reference preparations having a potassium channel opening activity and/or NO donors was measured.

[11] = 5 mg/kg oral twice a day for 4 days
[12] = Rattus norvegicus, 10^−4 M, contraction induced by 40 mM KCl
[13] = 3 mg/kg oral twice a day for 4 days, rats
[14] = 3 mg/kg oral twice a day for 4 days

Row | Structure (SMILES) | Relaxation % 1 [2] | Relaxation % 2 [2] | relaxing activity and tachyphylaxis (in words) [2] | IC treated/IC baseline [3] | IC treated/IC baseline ([4]; 3 mg/kg oral) | inhibition at 100 µM [7, 12] | also measured
1 | O=C(O)c1ccccc1Nc1cccc(C(F)(F)F)c1 [Flufenamic acid, 2-[[3-(trifluoromethyl)phenyl]-amino]benzoic acid] | 12.2% | 13.2% | has itself a myorelaxing activity | 1.42 | 1.42 |  | NITROXY-SYNTHETASE ACTIVITY [1]: 98 percentage
2 | O=C(Oc1cccc(CO[N+](=O)[O-])c1)c1ccccc1Nc1cccc(C(F)(F)F)c1 [NO-F] | 45.8% | 52.1% |  | 1.62 | 1.76 |  | NITROXY-SYNTHETASE ACTIVITY [1]: 63 percentage; gastrointestinal damage (in words) ([5]; 5 mg/kg oral twice a day for 4 days, group of 10 rats): one animal with a gastric ulcer and an animal with a duodenal ulcer; Pressure threshold (%) [6, 11]: 203%; Volume threshold (%) [6, 11]: 205%
3 | CS(=O)(=O)Nc1ccc([N+](=O)[O-])cc1Oc1ccccc1 [Nimesulide] |  |  |  |  |  | 41.8% | 
4 | COc1ccc2c(c1)c(CC(=O)O)c(C)n2C(=O)c1ccc(Cl)cc1 [Indomethacin] | 1.0% | 1.2% | practically inactive | 1.34 | 1.25 | 38.5% | Contraction % [8]: 78.2%; animals with diffuse adherences [5, 13]: 3/10; animals with ulceration also in the intestines [5, 13]: 7/19; gastrointestinal damage (in words) [5, 13]: ulceration was observed in the stomachs; Pressure threshold (%) [6, 14]: 190%; Volume threshold (%) [6, 14]: 198%; Contraction % [9]: 76.3%
5 | CC1(C)Oc2ccc(C#N)cc2C(N2CCCC2=O)C1O (centres unmarked) [Cromakalim] |  |  |  |  |  |  | Contraction % [8]: 50.5%; inhibition at 1 µM ([7]; Rattus norvegicus, 10^−6 M, contraction induced by 40 mM KCl): 33.3%; inhibition at 0.3 µM ([10]; Rattus norvegicus, 3 × 10^−7 M): 54.1%; IC treated/IC baseline ([4]; 0.5 mg/kg oral): 1.48; Contraction % [9]: 35.7%
6 | COc1ccc2cc([C@H](C)C(=O)O)ccc2c1 [Naproxen] |  |  |  |  |  |  | inhibition at 100 µM ([7]; Rattus norvegicus, 5 · 10^−4 M, contraction induced by 40 mM KCl): 15.2%
7 | O=C(NCCO[N+](=O)[O-])c1cccnc1 [Nicorandil] |  |  |  |  |  | 26.4% | inhibition at 1 µM ([10]; Rattus norvegicus, 10^−6 M): 32.6%
8 | COc1ccc2c(c1)c(CC(=O)Oc1cccc(CO[N+](=O)[O-])c1)c(C)n2C(=O)c1ccc(Cl)cc1 [NO-I] | 39.3% | 37.2% |  | 1.48 | 1.43 | 46.3% | Contraction % [8]: 61.5%; animals with gastric ulcers ([5]; 3 mg/kg oral twice a day for 4 days, group of 10 rats): 1; inhibition at 100 µM ([10]; Rattus norvegicus, 10^−4 M): 22.2%; Pressure threshold (%) [6, 14]: 223%; Volume threshold (%) [6, 14]: 226%; Contraction % [9]: 40.3%
9 | O=[N+]([O-])OCC(CO[N+](=O)[O-])O[N+](=O)[O-] [Nitroglycerin] | 32.1% | 7.3% | active but induced tachyphylaxis |  |  |  | inhibition at 10 µM ([7]; Rattus norvegicus): 28.7%
10 | CS(=O)(=O)N(C(=O)CCCCCO[N+](=O)[O-])c1ccc([N+](=O)[O-])cc1Oc1ccccc1 [NO-M, N-[(2-PHENOXY-4-NITRO)PHENYL]-N-(6-NITROXY)HEXANOYLMETHANE-SULPHONAMIDE] |  |  |  |  |  |  | Inhibition % ([7]; 10^−4 M, contraction induced by 40 mM KCl): 48.1%; Inhibition % ([10]; 10^−4 M): 19.5%
11 | N=C(N)NCCC[C@H](N)C(=O)O [L-arginine] | 22.7% | 12.2% | active but induced tachyphylaxis |  |  |  | 
